Assay results from PMC12396409, “Screening and hit evaluation of a microbial metabolite library against the pathogenic Plasmodium falciparum and Toxoplasma gondii parasites” (International Journal for Parasitology: Drugs and Drug …, 2025).
Like-named read-outs stand apart in the source and are kept apart here. Where a SMILES comes first, the peptide text is derived from it. [ ]: non-standard residue; d: D form. Phe(ol) = N[C@H](CO)Cc1ccccc1; Aib = CC(C)(N)C(=O)O

Assays:
[1] = test system: P. falciparum 3D7 parasites; experiment: P. falciparum growth inhibition assay, 1-cycle (72 h treatment), SYBR DNA staining (library screen at 2 μg/mL and dose-response); type: cell-based, Plasmodium falciparum
[2] = test system: P. falciparum 3D7 parasites; experiment: P. falciparum growth inhibition assay, 2-cycle (120 h treatment), delayed-death screen and dose-response; type: cell-based, Plasmodium falciparum
[3] = test system: T. gondii RH strain (RH-Tub-eYFP) tachyzoites; experiment: microbe, parasite or virus in culture; type: cell-based, Toxoplasma gondii
[4] = Plasmodium falciparum, 3D7, library screen at 2 μg/mL, 72 h, % growth, replicate 1, read-out: Pf_72h_%Growth_Rep1
[5] = Plasmodium falciparum, 3D7, library screen at 2 μg/mL, 72 h, % growth, replicate 2, read-out: Pf_72h_%Growth_Rep2
[6] = Plasmodium falciparum, 3D7, library screen at 2 μg/mL, 120 h, % growth, replicate 1, read-out: Pf_120h_%Growth_Rep1
[7] = Plasmodium falciparum, 3D7, library screen at 2 μg/mL, 120 h, % growth, replicate 2, read-out: Pf_120h_%Growth_Rep2
[8] = library screen at 2 μg/mL, 72 h, % growth, replicate 1
[9] = library screen at 2 μg/mL, 72 h, % growth, replicate 2
[10] = library screen at 2 μg/mL, 120 h, % growth, replicate 1
[11] = library screen at 2 μg/mL, 120 h, % growth, replicate 2

Work on `COc1cc(-c2ccc(O)cc2)c(OC)c(O)c1-c1ccc(O)cc1` [Terphenyllin] yielded an activity at 2 µg/mL ([1]; Plasmodium falciparum, 3D7, P. falciparum, 72 h, screen at 2 μg/mL, replicate 1, read-out: Pf_72h_%Growth_Rep1) of 87.2%, an activity at 2 µg/mL ([1]; Plasmodium falciparum, 3D7, P. falciparum, 72 h, screen at 2 μg/mL, replicate 2, read-out: Pf_72h_%Growth_Rep2) of 91.8% and an activity at 2 µg/mL ([2]; Plasmodium falciparum, 3D7, P. falciparum, 120 h, screen at 2 μg/mL, replicate 1, read-out: Pf_120h_%Growth_Rep1) of 179%. It also gave an activity at 2 µg/mL ([2]; Plasmodium falciparum, 3D7, P. falciparum, 120 h, screen at 2 μg/mL, replicate 2, read-out: Pf_120h_%Growth_Rep2) of 102%, a percent parasite growth at 2 µg/mL ([3]; Toxoplasma gondii, 72 h, T. gondii, 72 h, screen at 2 μg/mL, replicate 1; read-out: Tg_72h_%Growth_Rep1) of 84.9% and a percent parasite growth at 2 µg/mL ([3]; Toxoplasma gondii, 72 h, T. gondii, 72 h, screen at 2 μg/mL, replicate 2; read-out: Tg_72h_%Growth_Rep2) of 103%.

`CC(=O)NC(C)(C)C(=O)N1CCC[C@H]1C(=O)NC(C)(C)C(=O)N[C@@H](C)C(=O)NC(C)(C)C(=O)N[C@@H](C)C(=O)N[C@@H](CCC(N)=O)C(=O)NC(C)(C)C(=O)N[C@H](C(=O)NC(C)(C)C(=O)NCC(=O)N[C@@H](CC(C)C)C(=O)NC(C)(C)C(=O)N1CCC[C@H]1C(=O)N[C@H](C(=O)NC(C)(C)C(=O)NC(C)(C)C(=O)N[C@@H](CCC(N)=O)C(=O)N[C@@H](CCC(N)=O)C(=O)N[C@H](CO)Cc1ccccc1)C(C)C)C(C)C` [Alamethicin F50] (Ac-[Aib]P[Aib]A[Aib]AQ[Aib]V[Aib]GL[Aib]PV[Aib][Aib]QQ[Phe(ol)]) gave an activity at 2 µg/mL ([1]; Plasmodium falciparum, 3D7; P. falciparum, 2 μg/mL, 72 h; read-out: 1) Growth (%) at 72 h) of 22%, an activity at 2 µg/mL [1, 4] of 21.9% and an activity at 2 µg/mL [1, 5] of 22.1%. The “3) Fold change (72 h/120 h)” value ([2]; P. falciparum, growth at 72 h / growth at 120 h, 2 μg/mL) was 6.4, the activity at 2 µg/mL ([2]; Plasmodium falciparum, 3D7; P. falciparum, 2 μg/mL, 120 h; read-out: 2) Growth (%) at 120 h) was 3.45% and the activity at 2 µg/mL [2, 6] was 8.66%. For the same compound, the activity at 2 µg/mL [2, 7] was -1.76%, the percent parasite growth at 2 µg/mL ([3]; Toxoplasma gondii; library screen at 2 μg/mL, 72 h, % growth, replicate 1; read-out: Tg_72h_%Growth_Rep1) was 92.3% and the percent parasite growth at 2 µg/mL ([3]; Toxoplasma gondii; library screen at 2 μg/mL, 72 h, % growth, replicate 2; read-out: Tg_72h_%Growth_Rep2) was 87.6%.

`CC[C@H](C)C(=O)O[C@H]1C[C@@H](C)C=C2C=C[C@H](C)[C@H](CC[C@@H]3C[C@@H](O)CC(=O)O3)[C@H]21` [BIA-L1264] showed a Pf_72h_%Growth_Rep1 ([1]; P. falciparum 3D7, 72 h, library screen at 2 μg/mL, % growth, replicate 1) of 70.29%, a Pf_72h_%Growth_Rep2 ([1]; P. falciparum 3D7, 72 h, library screen at 2 μg/mL, % growth, replicate 2) of 102.36% and a Pf_120h_%Growth_Rep2 [2] of 93.18%. The Pf_120h_%Growth_Rep1 ([2]; P. falciparum 3D7, 120 h, library screen at 2 μg/mL, % growth, replicate 1) was 89.66%, the Tg_72h_%Growth_Rep1 ([3]; T. gondii RH, 72 h, library screen at 2 μg/mL, % growth, replicate 1) was 3.18% and the Tg_72h_%Growth_Rep2 ([3]; T. gondii RH, 72 h, library screen at 2 μg/mL, % growth, replicate 2) was 2.54%.

Compound `C=C(C)[C@@H]1CC[C@]2(C(=O)O)CC[C@]3(C)[C@H](CC[C@@H]4[C@@]5(C)CC[C@H](O)C(C)(C)[C@@H]5CC[C@]43C)[C@@H]12` [Betulinic acid] has an activity at 2 µg/mL [1, 4] of 73.8%, an activity at 2 µg/mL [1, 5] of 76.9% and an activity at 2 µg/mL [2, 6] of 70.3%. The activity at 2 µg/mL [2, 7] was 59.9%, the percent parasite growth at 2 µg/mL ([3]; Toxoplasma gondii, 72 h, library screen at 2 μg/mL, 72 h, % growth, replicate 1; read-out: Tg_72h_%Growth_Rep1) was 107% and the percent parasite growth at 2 µg/mL ([3]; Toxoplasma gondii, 72 h, library screen at 2 μg/mL, 72 h, % growth, replicate 2; read-out: Tg_72h_%Growth_Rep2) was 88%.

`CC1=C[C@H]2O[C@@H]3[C@H](O)C[C@](C)([C@@]2(CO)[C@H](O)C1=O)[C@]31CO1` [Deoxynivalenol] gave a Pf_72h_%Growth_Rep1 [1, 8] of -0.53%, a Pf_72h_%Growth_Rep2 [1, 9] of -5.17% and a Pf_120h_%Growth_Rep1 [2, 10] of 19.31%. For the same compound, the Pf_120h_%Growth_Rep2 [2, 11] was 5.93%, the Tg_72h_%Growth_Rep1 [3, 8] was -0.04% and the Tg_72h_%Growth_Rep2 [3, 9] was 0.56%.

With `CC(/C=C/C1CC=CC(=O)O1)=C\C(C)C/C=C/C(C)=C/C(C)C(=O)C(C)C(O)C(C)C/C(C)=C/C(=O)O` (stereo not drawn) [Anguinomycin A] the Pf_72h_%Growth_Rep1 [1, 8] was 77.34%, the Pf_72h_%Growth_Rep2 [1, 9] was 87.20% and the Pf_120h_%Growth_Rep1 [2, 10] was 145.35%. It also gave a Pf_120h_%Growth_Rep2 [2, 11] of 79.09%, a Tg_72h_%Growth_Rep1 [3, 8] of 87.81% and a Tg_72h_%Growth_Rep2 [3, 9] of 87.77%.

Compound `C=C1CC[C@H]2C(C)(C)CCC[C@]2(C)[C@H]1C[C@@]12C[C@H]3C(=O)N[C@@H](CC(C)C)C(=O)N3[C@@H]1Nc1ccccc12` [Drimentine A] has a Pf_72h_%Growth_Rep1 [1, 8] of 31.67%, a Pf_72h_%Growth_Rep2 [1, 9] of 47.87% and a Pf_120h_%Growth_Rep1 [2, 10] of 26.95%. It also gave a Pf_120h_%Growth_Rep2 [2, 11] of 40.06%, a Tg_72h_%Growth_Rep1 [3, 8] of 101.23% and a Tg_72h_%Growth_Rep2 [3, 9] of 80.15%.
